Laboratory results reported in patent US20110280813A1, “NEURAMINIDASE INHIBITORS AND USES THEREOF” (priority 2008, published 2011).
Entries after “also recorded” stand apart in the source; their conditions may differ. Where two headings read alike, the source gives them in different places.

What was measured:
[1] = biological target: T1, P. aeruginosa neuraminidase (NanPs) (Pseudomonas aeruginosa, UniProt G3XCV3); conditions: read-out: concentration for 50% inhibition of the P. aeruginosa neuraminidase; from reference A37; cited from earlier work
T1 sequence (G3XCV3 entry or part of it): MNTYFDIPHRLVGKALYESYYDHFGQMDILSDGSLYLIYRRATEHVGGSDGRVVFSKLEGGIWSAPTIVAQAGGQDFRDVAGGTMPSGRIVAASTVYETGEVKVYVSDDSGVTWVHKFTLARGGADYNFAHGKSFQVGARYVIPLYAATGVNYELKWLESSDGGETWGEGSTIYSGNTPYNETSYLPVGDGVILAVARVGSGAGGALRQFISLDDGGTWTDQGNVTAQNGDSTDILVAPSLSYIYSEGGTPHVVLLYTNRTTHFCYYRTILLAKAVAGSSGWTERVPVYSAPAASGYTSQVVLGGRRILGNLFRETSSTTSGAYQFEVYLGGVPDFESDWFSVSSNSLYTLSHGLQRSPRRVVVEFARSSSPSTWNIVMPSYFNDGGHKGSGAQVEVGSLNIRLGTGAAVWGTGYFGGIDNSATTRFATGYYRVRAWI

[2] = biological target: T2, S. pneumoniae neuraminidase (NanA) (Streptococcus pneumoniae, UniProt P62575); test: Neuraminidase assay with fluorogenic substrate MNN, NanA; type: biochemical
T2 construct: residues 116-1035 of S. pneumoniae D39 sialidase A precursor (NanA); made in house; host or cells: E. coli BL21(DE3), pET28a
T2 sequence (P62575 116-1035): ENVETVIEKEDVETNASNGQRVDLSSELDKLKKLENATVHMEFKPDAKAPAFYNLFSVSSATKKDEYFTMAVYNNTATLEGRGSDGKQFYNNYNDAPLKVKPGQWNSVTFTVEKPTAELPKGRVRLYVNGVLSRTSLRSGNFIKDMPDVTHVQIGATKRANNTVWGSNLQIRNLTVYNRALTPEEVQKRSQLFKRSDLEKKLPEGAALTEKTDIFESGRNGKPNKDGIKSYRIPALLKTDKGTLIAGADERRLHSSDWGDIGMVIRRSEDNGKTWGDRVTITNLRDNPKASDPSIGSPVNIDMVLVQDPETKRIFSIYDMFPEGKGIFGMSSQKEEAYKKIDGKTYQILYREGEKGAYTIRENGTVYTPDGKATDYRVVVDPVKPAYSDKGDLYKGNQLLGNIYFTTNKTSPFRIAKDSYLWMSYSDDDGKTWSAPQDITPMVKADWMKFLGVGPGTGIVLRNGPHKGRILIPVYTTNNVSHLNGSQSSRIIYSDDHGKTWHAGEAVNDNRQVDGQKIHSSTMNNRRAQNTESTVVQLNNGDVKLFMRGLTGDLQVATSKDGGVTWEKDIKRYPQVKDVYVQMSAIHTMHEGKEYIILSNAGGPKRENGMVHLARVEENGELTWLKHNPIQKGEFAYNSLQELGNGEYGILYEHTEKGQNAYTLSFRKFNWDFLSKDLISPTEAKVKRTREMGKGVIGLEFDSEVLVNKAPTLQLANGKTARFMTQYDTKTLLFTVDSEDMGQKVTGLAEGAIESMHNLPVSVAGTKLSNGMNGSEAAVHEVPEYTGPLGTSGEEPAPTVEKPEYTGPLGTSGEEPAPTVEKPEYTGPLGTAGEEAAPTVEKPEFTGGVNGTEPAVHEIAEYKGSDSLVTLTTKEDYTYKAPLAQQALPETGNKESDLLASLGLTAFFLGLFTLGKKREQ
Procedure: (§1) Neuraminidase assay. Neuraminidase activity of NanA was detected using the fluorogenic substrate 2′-(4-methylumbelliferyl)-α-D-N-acetylneuraminic acid (MNN, Sigma). Reactions contained 1.5 mM MNN, 1 nM of NanA in 2.5 mM sodium phosphate buffer (pH 5). Reactions were allowed to incubate for 2 h at 37° C. before fluorescence intensity was measured at excitation and emission wavelengths of 360 nm and 465 nm in a Tecan microplate reader (Männedorf, Switzerland). NanPs was assayed as above with 1 mM of enzyme in 7.5 mM sodium chloride and 4 mM calcium chloride. Compounds were screened at a concentration of 100 μM before dose-dependence was established. Compounds were obtained from a variety of sources (Otava, Kyiv, Ukraine; Interbioscreen, Moscow, Russia; Chembridge San Diego, USA; Maybridge, Cornwell, UK; Sigma, St Louis, USA; Princeton, Princeton, USA; Lifechem, Burlington, Canada; Enamine, Kiev, Ukraine). Neuraminidase assays with oseltamivir were performed using the hydrolyzed version of the compound. Divalent cations were supplied in the form of calcium, magnesium, ferric and copper chloride. All neuraminidase assays were performed at least in triplicate.
as §1, with “assay. NanA was purified as previously described (B19).” for “assay.”, “Switzerland).” for “Switzerland). NanPs was assayed as above with 1 mM of enzyme in 7.5 mM sodium chloride and 4 mM calcium chloride. Compounds were screened at a concentration of 100 μM before dose-dependence was established.”, “Kiev,” for “Kyiv,”, “compound. Briefly, a mixture of oseltamivir (300 mg) in methanol (10 ml) was added to 5N NaOH (3 ml). The mixture was stirred overnight and evaporated under reduced pressure. The residue was dissolved in 10 ml H2O and the washed with 5 ml of ethyl acetate. The aqueous solution was acidified with 5N HCl to pH=2-3. Evaporation of water under reduced pressure gave the hydrolyzed product. […]” for “compound.”

[3] = system: S. pneumoniae wild-type D39 biofilm; test: Biofilm formation after epithelial cell interaction (crystal violet microtitre assay); type: cell-based, Streptococcus pneumoniae
Procedure: (§2) Biofilm assay. Bacterial strains were grown to mid-log phase before being diluted 1:100 in TS broth and catalase. 100 μl of diluted culture was added in triplicate to 96-well flat bottom tissue culture treated plates (Falcon) and left for 18-24 h at 37° C. with 5% CO2. Plates were read at 600 nm to determine levels of growth before being washed in water. Adherent biofilm-forming cells were then stained with 125 μL of 1% crystal violet for 15 min before two further washes in water and allowed to dry. Bound crystal violet was then suspended in 200 μL of ethanol, shaken for 15 min and read at 540 nm.
(§3) Biofilm formation after epithelial cell interaction. Bacterial strains were grown and inoculated onto 1HAEo^− cells as per adherence assay. After the initial PBS washes fresh MEM media was applied before a further 1 h incubation. This removal and addition of fresh media was repeated a further four times before detachment of adherent bacteria using TrypLE Express (Gibco). The detached bacteria were then diluted 1:100 in TS broth and catalase and assayed as per the biofilm assay. Samples were repeated four times, each time in sextuplicate using epithelial cells without bacteria as a negative control.
as §3, with “control. […] Fluorescence microscopy was performed using a Zeiss Observer Z1 inverted fluorescence microscope with ApoTome (Zeiss) for optical sectioning and AxioVision software (v 4.6.2.0, Zeiss). […]” for “control.”

[4] = biological target: T1, P. aeruginosa neuraminidase (NanPs); test: Neuraminidase assay with fluorogenic substrate MNN, NanPs; type: biochemical
Procedure: as §1

[5] = system: S. pneumoniae planktonic cells; test: Growth of planktonic cells (600 nm reading in biofilm assay); type: cell-based, Streptococcus pneumoniae
Procedure: as §2
as §3, with “control. […] Fluorescence microscopy was performed using a Zeiss Observer Z1 inverted fluorescence microscope with ApoTome (Zeiss) for optical sectioning and AxioVision software (v 4.6.2.0, Zeiss). […]” for “control.”

CC(=O)N[C@H]1[C@H]([C@H](O)[C@H](O)CO)OC(C(=O)O)=C[C@@H]1O [DANA, 2,3-dehydro-2-deoxy-N-acetylneuraminic acid]
IC50 [1]: ~10000 µM

CC(=O)N[C@@H]1[C@@H](O)C[C@](Oc2ccc3c(C)cc(=O)oc3c2)(C(=O)O)O[C@H]1C(O)[C@H](O)CO (stereo partly drawn) [MNN, 2′-(4-methylumbelliferyl)-α-D-N-acetylneuraminic acid, reference compound]
Km [2]: ~1400 µM

CC(=O)N[C@H]1[C@H]([C@H](O)[C@H](O)CO)OC(O)(C(=O)O)C[C@@H]1O (stereo partly drawn) [NANA, N-acetylneuraminic acid, reference compound]
IC50 [2]: 600 µM
biofilm formation of the wild-type (D39) strain ([3]; 0.2% w/v NANA): decreased biofilm formation; also recorded: reduced biofilm formation
IC50 [1]: ~10000 µM

CCOC(=O)C1=C[C@@H](OC(CC)CC)[C@H](NC(C)=O)[C@@H](N)C1 [Oseltamivir, oseltamivir, reference compound]
IC50 ([2]; IC50 against NanA, hydrolyzed version of oseltamivir): 2000 µM
IC50 [4]: ~600 µM

COc1ccc([C@H]2[C@H](C(=O)c3ccc(Cl)cc3)C(=O)C(=O)N2c2cccc(C(=O)O)c2)cc1 [XX1]
inhibition of NanA, times more effective than DANA ([2]; Example 1): greater than 20 times
inhibition of NanA, times more effective than NANA ([2]; Example 1): > 80 times
inhibition of NanA, times more effective than oseltamivir ([2]; Example 1): > 200 times
inhibition of NanA, times more effective than DANA ([2]; Example 3): greater than 7 times
inhibition of NanA, times more effective than NANA ([2]; Example 3): > 20 times
inhibition of NanA, times more effective than oseltamivir ([2]; Example 3): > 70 times
IC50 ([2]; IC50 against NanA, Example 3, dose response fitted with logarithmic-based trend line): 28 µM
IC50 ([2]; IC50 for the S. pneumoniae neuraminidase, Example 1, dose response fitted with power-based trend line): 8.5 µM
IC50 [4]: 29 µM
biofilm formation ([3]; 100 μM, inhibitor present during epithelial cell exposure and in microtitre trays): significant reduction in biofilm formation
levels of biofilm formation ([3]; 400 μM, inhibitor present during epithelial cell exposure and in microtitre trays): comparative to the nanA strain
growth of planktonic cells [5]: did not affect growth

[Ca] [calcium]
increase in NanA activity ([2]; 1 mM calcium): 70%

[Mg] [magnesium]
increase in NanA activity ([2]; presence of magnesium ions): 50%
